The structures appear in SMILES notation.

The assay deals with Plasminogen activator inhibitor 1 (Homo sapiens, UniProt P05121). Briefly: Inhibitory concentration required against Plasminogen activator inhibitor 1.
Sequence of Plasminogen activator inhibitor 1 (P05121 whole entry): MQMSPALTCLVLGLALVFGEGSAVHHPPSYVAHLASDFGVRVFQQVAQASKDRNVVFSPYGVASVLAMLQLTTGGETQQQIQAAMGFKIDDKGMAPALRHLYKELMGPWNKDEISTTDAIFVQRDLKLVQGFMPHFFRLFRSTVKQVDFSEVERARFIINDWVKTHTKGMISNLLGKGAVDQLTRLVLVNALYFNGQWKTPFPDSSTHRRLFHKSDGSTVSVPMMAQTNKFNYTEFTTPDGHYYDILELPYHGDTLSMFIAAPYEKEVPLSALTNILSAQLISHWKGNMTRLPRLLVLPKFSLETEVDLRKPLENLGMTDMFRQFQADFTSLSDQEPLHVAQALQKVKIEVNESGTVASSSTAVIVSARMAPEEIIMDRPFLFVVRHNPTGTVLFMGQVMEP
Compound `O=C(Nc1ccc(/C=C2\NC(=O)c3ccccc3C2=O)cc1)c1ccccc1` displayed a 50% inhibitory concentration (IC50) of 8.6 µM. `COc1cccc(-c2[nH]c(=O)c3ccccc3c2O)c1` yielded an IC50 of 9.8 µM.

Turning to `O=C(Nc1cc(C(F)(F)F)cc(C(F)(F)F)c1)c1nc(O)c2ccccc2c1O`, the half-maximal inhibitory concentration (IC50) is 13.7 µM. As to `Oc1nc(-c2ccccc2)c(O)c2ccccc12`, the IC50 was 50 µM. In the case of `O=c1[nH]/c(=C\c2ccccn2)c(=O)[nH]/c1=C\c1ccc(OCCCc2cccnc2)cc1`, the concentration for half-maximal inhibition (IC50) amounted to 0.3 µM.

In turn, `O=C(Nc1ccc(/C=C2\NC(=O)c3ccccc3C2=O)cc1)c1cccs1` gave a half-maximal inhibitory concentration (IC50) of 4 µM.

In turn, `O=c1[nH]c(-c2ccc(F)cc2)c(O)c2ccccc12` had an IC50 of 39.5 µM.

Turning to `O=C(Nc1ccc(Oc2ccc(OC(F)(F)F)cc2)cc1)c1[nH]c(=O)c2ccccc2c1O`, the midpoint of inhibition, the IC50, lay at 1 µM.

`O=C(Nc1ccc(Cl)cc1)c1nc(O)c2ccccc2c1O` came in with a 50% inhibitory concentration (IC50) of 24 µM.

In turn, `Oc1nc(-c2ccc(Cl)cc2)c(O)c2ccccc12` yielded an IC50 of 23.6 µM.

Regarding `O=c1[nH]/c(=C\c2nccs2)c(=O)[nH]/c1=C\c1ccc(OCCCc2cccnc2)cc1`, half-maximal inhibition (IC50) required 0.6 µM. Take `O=C1N/C(=C\c2ccc(OCCCc3cccnc3)cc2)C(=O)c2ccccc21`: the IC50 was 18 µM. For `O=C(Nc1ccc(Cl)c(Cl)c1)c1nc(O)c2ccccc2c1O`, the concentration for half-maximal inhibition (IC50) is 14 µM. In turn, `O=C(Nc1ccc(/C=C2\NC(=O)c3ccccc3C2=O)cc1)c1ccco1` gave an IC50 of 1.9 µM. `O=c1[nH]/c(=C\c2ccc(OCCCc3cccnc3)cn2)c(=O)[nH]/c1=C\c1ccccc1` had an IC50 of more than 50 µM.

Take `Cn1c(=O)/c(=C/c2ccc(OCCCc3cccnc3)cc2)[nH]c(=O)/c1=C/c1ccccc1`: the half-inhibitory concentration (IC50) was 12 µM. Regarding `O=c1[nH]/c(=C\c2ccc(OCCCc3cccnc3)cc2)c(=O)[nH]/c1=C\c1ccccc1`, the IC50 worked out at 1 µM.

The values above are taken from ChEMBL document CHEMBL1134892, “Novel inhibitors of plasminogen activator inhibitor-1: development of new templates from diketopiperazines” (Bioorg Med Chem Lett, 2002).
